Results reported in US5012004A, “Ether compounds and their production, and insecticidal and/or acaricidal compositions containing them” (priority 1987, dated 1991).
Where two headings read alike, the source gives them in different places.

Tests used:
Type in all cases: in vivo
[1] = tested on: adults of brown rice planthopper (Nilaparvata lugens); assay: Mortality of adults of brown rice planthopper on dipped rice stems (Test Example 2); settings: 24 h, 200 fold dilution (ca. 500 ppm), one day thereafter, two replications
From the text: (§1) One of Compound Nos. 1 to 38 (10 parts), polyoxyethylene styrylphenyl ether (14 parts), calcium dodecylbenzenesulfonate (6 parts), xylene (35 parts) and dimethylformamide (35 parts) are well mixed to make an emulsifiable concentrate.
Stems of rice plants (about 12 cm in length) were dipped in a 200 fold dilution (ca. 500 ppm) of the emulsifiable concentrate prepared according to Formulation Example 2. After air-drying, the stems were taken into a test tube and 10 adults of brown rice planthopper (Nilaparvata lugens) were released therein.

[2] = tested on: eggs of diamondback moth (Plutella xylostella); assay: Ovicidal test: mortality of eggs of diamondback moth on dipped radish cotyledons (Test Example 1); settings: 72 h, read-out: Mortality (%) of the eggs
From the text: Seven days after sowing, adults of diamondback moth (Plutella xylostella) were released to cotyledons of three radishes for oviposition (about 15 eggs per 1 cotyledon). […] After air-drying, the seedlings were taken into a cup made of polyethylene at the bottom of which were placed a filter paper.

[3] = tested on: last instar larvae of common mosquito (Culex pipiens pallens); assay: Emergence inhibition of last instar larvae of common mosquito (Test Example 3); settings: read-out: Rate of emergence inhibition (%)
Protocol: as §1
An emulsifiable concentrate prepared according to Formulation Example 2 was diluted with water to make a concentration of 3.5 ppm. The dilution (100 ml) was charged in a plastic cup (each 180 ml volume), and twenty last instar larvae of common mosquito (Culex pipiens pallens) were released therein. Feeding was continued until emergence of all larvae, and the rate of emergence inhibition was observed.
The rate of emergence inhibition was determined according to the following criteria:
Rate of emergence inhibition […]
b: less than 90% to not less than 80% inhibition c: less than 80% inhibition

[4] = tested on: female carmine spider mites (Tetranychus cinnabarinus); assay: Plant damage by female carmine spider mites on kidney bean, pot spray plus soil application (Example 4); settings: ca. 500 ppm, 15 ml spray per pot plus 2 ml to soil, eight days thereafter
Protocol: as §1
Adults of female carmine spider mites (Tetranychus cinnabarinus) were permitted to live on leaves (10 mites per leaf) of kidney bean seven days after sowing in the pots, and the mites were kept at 25° C. in a greenhouse. After 6 days, a 200 fold dilution (ca. 500 ppm) of the emulsifiable concentrate prepared according to Formulation Example 2 was sprayed over the pots placed on a turn table at a spray volume of 15 ml per pot, and also 2 ml of the dilution were applied to the soil in each pot. Eight days thereafter, the plant damage by the mites was observed and evaluated according to the following criteria:
______________________________________
-: no material damage to leaves
+: slight damage to leaves

[5] = 3.5 ppm, twenty last instar larvae, until emergence
[6] = 200 fold dilution (ca. 500 ppm), cotyledons dipped 30 seconds, three days thereafter, two replications

Compound	mortality at 500 µg/mL [2] [%]	mortality at 500 µg/mL [2, 6] [%]	Plant damage [4]	other results
FCCOc1ccccc1Cl [Compound No. 3]	100			mortality at 500 µg/mL [1]: 100%
FCCOc1cccc(CBr)c1 [compound 15]	100			
FCCOc1ccc(COc2ccc(Oc3ccccc3)cc2)cc1 [compound 19]		100		inhibition at 3.5 ppm [3, 5]: > 90%
FCCOc1ccc(C(F)F)cc1 [Compound No. 10, 1-difluoromethyl-4-(2-fluoroethoxy)benzene]		100		
FCCOc1ccc(Oc2cccc(F)c2)cc1 [Compound No. 23, 1-(2-fluoroethoxy)-4-(3-fluorophenoxy)benzene]		100		mortality at 500 µg/mL [1]: 100%; inhibition at 3.5 ppm [3]: > 90%
CC(C)(c1ccccc1)c1ccc(OCCF)cc1 [compound 31]		100		
FCCOc1ccc(-c2ccc(OCCF)cc2)cc1 [compound 12]	100			
COc1cccc(OCCF)c1 [compound 5]	100			
FCCOc1ccc(F)cc1 [Compound No. 2]	100			
FCCOc1ccc(Oc2ccccc2)cc1 [Compound No. 22, 1-(2-fluoroethoxy)-4-phenoxybenzene]		100	- ~ +	mortality at 500 µg/mL [1]: 100%; inhibition at 3.5 ppm [3]: > 90%
Cc1cccc(OCCF)c1 [compound 7]	100			
Cc1ccc(OCCF)cc1 [compound 8]	100			
FCCOc1ccc(Sc2ccccc2)cc1 [compound 33]		100	-	mortality at 500 µg/mL [1]: 100%; inhibition at 3.5 ppm [3]: > 90%
FCCOc1ccccc1COc1ccc(Oc2ccccc2)cc1 [compound 17]		100	-	
FCCOc1ccc(OCCF)cc1 [compound 11]	100		- ~ +	mortality at 500 µg/mL [1]: 100%; inhibition at 3.5 ppm [3]: > 90%
FCCOc1ccccc1 [Compound No. 1]	100			
FCCCCOc1ccc(Oc2ccccc2)cc1 [compound 25]		100		inhibition at 3.5 ppm [3, 5]: > 90%
FCCOc1ccc(Sc2ccc(OCCF)cc2)cc1 [compound 34]		100		inhibition at 3.5 ppm [3]: > 90%
FCCOc1ccc2oc3ccccc3c2c1 [Compound No. 35, 2-(2-fluoroethoxy)-dibenzofuran]		100	-	inhibition at 3.5 ppm [3]: > 90%
FCCOc1ccc(OC2C=CCCC2)cc1 (stereo not shown) [compound 38]		100	-	

Compound	mortality at 500 µg/mL [2] [%]	mortality at 500 µg/mL [2, 6] [%]	Plant damage [4]	other results
FCCOc1ccc(OCc2ccccc2)cc1 [A, reference compound]				mortality at 500 µg/mL [1]: 0%; inhibition at 3.5 ppm [3]: 80 to 90%
FCCOc1ccc2c(c1)OCO2 [compound 13]		100		
FCCOc1ccccc1-c1ccccc1 [Compound No. 20, 1-(2-fluoroethoxy)-2-phenylbenzene]		100		mortality at 500 µg/mL [1]: 100%
FCCOc1cccc(COc2ccc(Oc3ccccc3)cc2)c1 [compound 18]		100	- ~ +	inhibition at 3.5 ppm [3, 5]: > 90%
FCCOc1cccc(Cl)c1 [compound 4]	100			
CCC(F)COc1ccc(Oc2ccccc2)cc1 (stereo not shown) [compound 28]		100		inhibition at 3.5 ppm [3, 5]: > 90%
O=C1c2ccccc2-c2ccc(OCCF)cc21 [compound 37]		100	- ~ +	
Cc1cc(Cl)ccc1N=CN(C)C [B, N'-(4-chloro-2-methylphenyl)-N,N-dimethylformamidine, reference compound]			+	
FCCOc1ccccc1CBr [compound 14]	100			
CC(CF)Oc1ccc(Oc2ccccc2)cc1 (stereo not shown) [compound 26]		100		inhibition at 3.5 ppm [3, 5]: > 90%
FCCOc1ccc(Cc2ccccc2)cc1 [compound 30]		100	- ~ +	mortality at 500 µg/mL [1]: 100%
Cc1ccccc1OCCF [compound 6]	100			
O=C(c1ccccc1)c1ccc(OCCF)cc1 [compound 36]		100	-	
FCCOc1cccc(-c2ccccc2)c1 [compound 21]		100	- ~ +	inhibition at 3.5 ppm [3]: > 90%
FCCOc1ccc(CBr)cc1 [compound 16]	100			
FCCOc1cccc(Oc2ccccc2)c1 [compound 29]		100		mortality at 500 µg/mL [1]: 90%
Cc1cc(Cl)ccc1OCCF [compound 9]	100			inhibition at 3.5 ppm [3]: > 90%
FCCOc1ccc(Oc2cc(F)cc(F)c2)cc1 [compound 24]		100		inhibition at 3.5 ppm [3]: > 90%
CC(F)COc1ccc(Oc2ccccc2)cc1 (stereo not shown) [compound 27]		100		inhibition at 3.5 ppm [3, 5]: > 90%
CC(C)(c1ccc(OCCF)cc1)c1ccc(OCCF)cc1 [compound 32]		100		inhibition at 3.5 ppm [3, 5]: > 90%
